Test results as given in the supplement of paper PMC10307832.

Columns and labels:
Experiment in all cases: relative viability (nuclei count vs DMSO), 5 days (fraction); higher = more cells survive
[1] = compound: Nc1ncn([C@H]2C[C@H](O)[C@@H](CO)O2)c(=O)n1 [Decitabine] + Cc1nc(NC(=O)N2CCC[C@H]2C(N)=O)sc1-c1ccnc(C(C)(C)C(F)(F)F)c1 [Alpelisib] (partner 2 µM)
In short: (§1)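 Five library-drug doses in √10 steps were combined with a fixed anchor-drug dose, or a single drug was given alone, by pin tool to lung cancer cell lines in 1536-well plates the day after seeding. Nuclei were stained and counted after 5 days. Relative viability is the nuclei count in treated wells over that in vehicle wells, taken as the median of duplicate plates.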

[2] = compound: COc1cc2c(Oc3ccc4[nH]c(C)cc4c3F)ncnc2cc1OCCCN1CCCC1 [Cediranib] + Cc1nc(NC(=O)N2CCC[C@H]2C(N)=O)sc1-c1ccnc(C(C)(C)C(F)(F)F)c1 [Alpelisib] (partner 2 µM)
In short: as §1

[3] = compound: Nc1ncn([C@H]2C[C@H](O)[C@@H](CO)O2)c(=O)n1 [Decitabine] + COc1cc2c(Oc3ccc(NC(=O)C4(C(=O)Nc5ccc(F)cc5)CC4)cc3F)ccnc2cc1OCCCN1CCOCC1 [Foretinib] (partner 0.25 µM)
In short: as §1

[4] = compound: O=C(C[C@H]1NCCC[C@@H]1O)Cn1cnc2cc(Br)c(Cl)cc2c1=O (racemic) [Halofuginone] + Nc1ncn([C@H]2C[C@H](O)[C@@H](CO)O2)c(=O)n1 [Decitabine] (partner 2 µM)
In short: as §1

| Cell Line | relative viability ([1]; first compound 0.04 µM) | relative viability ([1]; first compound 0.1265 µM) | relative viability ([1]; first compound 0.4 µM) | relative viability ([1]; first compound 1.265 µM) | relative viability ([1]; first compound 4 µM) | relative viability ([2]; first compound 0.04 µM) | relative viability ([2]; first compound 0.1265 µM) | relative viability ([2]; first compound 0.4 µM) | relative viability ([2]; first compound 1.265 µM) | relative viability ([2]; first compound 4 µM) | relative viability ([3]; first compound 0.04 µM) | relative viability ([3]; first compound 0.1265 µM) | relative viability ([3]; first compound 0.4 µM) | relative viability ([3]; first compound 1.265 µM) | relative viability ([3]; first compound 4 µM) | relative viability ([4]; first compound 0.001 µM) | relative viability ([4]; first compound 0.003162 µM) | relative viability ([4]; first compound 0.01 µM) | relative viability ([4]; first compound 0.03162 µM) | relative viability ([4]; first compound 0.1 µM) |
| --- | --- | --- | --- | --- | --- | --- | --- | --- | --- | --- | --- | --- | --- | --- | --- | --- | --- | --- | --- | --- |
| 201T | 1 | 1.08 | 1.12 | 0.949 | 0.923 | 1.03 | 1.24 | 1.04 | 0.992 | 1.03 | 1.18 | 1.35 | 1.02 | 0.744 | 0.727 | 0.844 | 0.896 | 0.857 | 0.792 | 0.845 |
| A549 | 0.647 | 0.56 | 0.494 | 0.214 | 0.165 | 0.698 | 0.947 | 0.654 | 0.701 | 0.869 | 0.719 | 0.634 | 0.448 | 0.143 | 0.0978 | 0.338 | 0.278 | 0.293 | 0.257 | 0.258 |
| A-427 | 0.695 | 0.462 | 0.303 | 0.265 | 0.232 | 1.04 | – | 1.08 | 1.01 | 1.08 | 0.653 | 0.635 | 0.354 | 0.264 | 0.242 | 0.626 | 0.596 | 0.541 | 0.564 | 0.52 |
| ABC-1 | 0.833 | 0.816 | 0.786 | 0.731 | 0.753 | 1.06 | 1.01 | 1.04 | – | 1.07 | 0.979 | 0.912 | 0.763 | 0.839 | 0.67 | 1.11 | 1.39 | 0.926 | 1.26 | 1.04 |
| BEN | 0.943 | 0.908 | 0.651 | 0.564 | 0.426 | 1.17 | 0.814 | 0.906 | 1.04 | 0.953 | 0.596 | 0.566 | 0.35 | 0.437 | 0.38 | 0.719 | 0.743 | 0.754 | 0.778 | 0.561 |
| CAL-12T | 0.686 | 0.997 | 0.793 | 0.514 | 0.34 | 1.38 | 1.13 | 1.05 | 1.26 | 1.13 | 1.08 | 0.883 | – | 0.618 | 0.419 | – | – | – | – | – |
| COR-L23 | 0.412 | 0.346 | 0.311 | 0.225 | 0.213 | 0.916 | 0.788 | 0.816 | 0.829 | 0.815 | 0.597 | 0.605 | 0.473 | 0.353 | 0.246 | 0.518 | 0.511 | 0.421 | 0.465 | 0.217 |
| COR-L 105 | 0.763 | 0.873 | 0.717 | 0.427 | 0.306 | – | 1.14 | 0.862 | 1.14 | 1.1 | 1.2 | 0.98 | 0.881 | 0.633 | 0.554 | 0.673 | 0.791 | 0.63 | 0.598 | 0.568 |
| Calu-6 | 0.736 | 0.681 | 0.547 | 0.322 | 0.279 | 1.06 | 1.01 | 0.991 | 0.935 | 1.04 | 0.698 | 0.525 | 0.275 | 0.243 | 0.217 | – | – | – | – | – |
| ChaGo-K-1 | – | – | – | – | – | – | – | – | – | – | 0.819 | 0.683 | 0.507 | 0.376 | 0.421 | 0.548 | 0.531 | 0.474 | 0.532 | 0.532 |
| EBC-1 | 0.516 | 0.453 | 0.421 | 0.305 | 0.271 | 0.857 | 1.01 | 0.762 | 0.719 | 1.02 | 0.0865 | 0.0957 | 0.106 | 0.0836 | 0.0866 | – | – | – | – | – |
| EKVX | 0.635 | 0.565 | 0.522 | 0.393 | 0.318 | 0.961 | 1.2 | 0.849 | 0.879 | 0.836 | 0.65 | 0.995 | 0.605 | 0.353 | 0.365 | 0.317 | 0.313 | 0.281 | 0.354 | 0.276 |
| EMC-BAC-2 | 0.718 | 0.699 | 0.481 | 0.442 | 0.41 | 0.788 | 0.796 | 0.707 | 0.728 | 0.801 | 0.936 | 0.861 | 0.762 | 0.66 | 0.588 | 0.989 | 1 | 0.917 | 0.874 | 0.409 |
| EPLC-272H | 0.723 | 0.688 | – | 0.606 | 0.525 | 1.06 | – | 0.962 | 0.97 | 1 | – | 0.611 | 0.0722 | 0.304 | 0.35 | 0.421 | 0.4 | 0.39 | 0.436 | 0.351 |
| H3255 | 0.222 | 0.579 | 0.358 | 0.428 | 0.436 | 0.785 | 0.754 | 0.691 | 0.622 | 0.61 | – | 0.652 | 0.484 | 0.587 | 0.513 | 0.593 | 0.682 | 0.567 | 0.628 | 0.517 |
| HARA | 0.73 | 0.749 | 0.474 | 0.365 | 0.249 | 0.844 | 1.14 | 0.837 | 0.857 | 1.01 | 0.641 | 0.558 | 0.387 | 0.215 | 0.165 | 0.664 | 0.648 | 0.611 | 0.591 | 0.434 |
| HCC-15 | 0.799 | 0.773 | 0.441 | 0.438 | 0.302 | 0.961 | – | 0.827 | 0.933 | 0.961 | 0.939 | 0.957 | 0.542 | 0.56 | 0.434 | 0.647 | 0.71 | 0.747 | 0.676 | 0.482 |
| HCC-44 | 0.66 | 0.779 | 0.253 | 0.462 | 0.336 | 0.754 | – | 0.731 | 0.784 | 0.898 | – | – | – | – | – | 0.967 | 0.992 | 0.953 | 0.973 | 0.902 |
